Literature values, collected in patent US5314690A, “Method and composition for treating IgE-mediated allergies” (Northwestern University, priority 1992, dated 1994).
Where two headings read alike, the source gives them in different places. Where no end group is shown, it is not given here.

Columns and labels:
immune response [1] = details: reported by Siemion et al.; for Effect on the immune response at low doses: low doses (one dose)
immune response [2] = details: reported by Siemion et al.
[3] = listed as N-terminal tetrapeptide
[4] = listed as C-terminal pentapeptide

Substance	Effect on the immune response at higher doses (immune response [1])	Effect on the immune response at higher doses (immune response [1]; [3])	Effect on the immune response at low doses (immune response [1])	Effect on the immune response at low doses (immune response [1]; [3])	Effect on the immune response in vitro (immune response [2])	Effect on the immune response in vitro (immune response [2]; [4])	Effect on the immune response in vivo (immune response [1])	Effect on the immune response in vivo (immune response [1]; [4])
Gly-Pro-Arg-Pro (GPRP) [SP^1-4, No. 5]	slightly stimulated	stimulatory at a higher dose	only moderately suppressed the immune response	suppressive at one dose				
Phe-Phe-Gly-Leu-Met-NH2 (FFGLM-NH2) [SP^7-11, No. 2]					suppressed the immune response in vitro	immunosuppressant	distinct immuno-suppression in vivo	immunosuppressant
